# Experiments:
# [1] = target: T1, Muscarinic acetylcholine receptor M1 (Homo sapiens, UniProt P11229); format: functional, cell-based
# T1 sequence (P11229 whole entry): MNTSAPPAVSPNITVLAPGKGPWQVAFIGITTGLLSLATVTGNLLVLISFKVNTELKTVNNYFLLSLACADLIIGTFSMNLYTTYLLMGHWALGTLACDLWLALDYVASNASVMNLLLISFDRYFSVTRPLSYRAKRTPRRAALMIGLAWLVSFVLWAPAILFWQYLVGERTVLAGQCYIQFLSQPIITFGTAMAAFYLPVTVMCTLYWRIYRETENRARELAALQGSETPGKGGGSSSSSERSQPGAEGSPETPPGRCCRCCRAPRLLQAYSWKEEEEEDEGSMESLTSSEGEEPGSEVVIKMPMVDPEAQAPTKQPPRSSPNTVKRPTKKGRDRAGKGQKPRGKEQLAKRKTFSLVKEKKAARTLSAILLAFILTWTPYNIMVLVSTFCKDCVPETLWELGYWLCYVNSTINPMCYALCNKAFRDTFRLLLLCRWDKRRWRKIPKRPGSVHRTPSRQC
# Adenosine receptor A2a = Adenosine receptor A2a (Homo sapiens, UniProt P29274)
# Adenosine receptor A3 = target: T2, Adenosine receptor A3 (Homo sapiens, UniProt P0DMS8)
# T2 sequence (P0DMS8 whole entry): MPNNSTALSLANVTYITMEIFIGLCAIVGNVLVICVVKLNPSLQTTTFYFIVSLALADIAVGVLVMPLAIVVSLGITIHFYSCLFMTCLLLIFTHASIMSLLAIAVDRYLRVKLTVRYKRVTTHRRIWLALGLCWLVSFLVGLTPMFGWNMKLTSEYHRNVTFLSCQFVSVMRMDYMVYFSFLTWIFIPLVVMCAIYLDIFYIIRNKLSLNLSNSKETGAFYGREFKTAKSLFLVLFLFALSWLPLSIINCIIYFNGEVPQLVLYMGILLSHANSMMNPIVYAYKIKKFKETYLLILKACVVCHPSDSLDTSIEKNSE
# [2] = target: T3, Alpha-2A adrenergic receptor (Homo sapiens, UniProt P08913); format: functional, cell-based
# T3 sequence (P08913 whole entry): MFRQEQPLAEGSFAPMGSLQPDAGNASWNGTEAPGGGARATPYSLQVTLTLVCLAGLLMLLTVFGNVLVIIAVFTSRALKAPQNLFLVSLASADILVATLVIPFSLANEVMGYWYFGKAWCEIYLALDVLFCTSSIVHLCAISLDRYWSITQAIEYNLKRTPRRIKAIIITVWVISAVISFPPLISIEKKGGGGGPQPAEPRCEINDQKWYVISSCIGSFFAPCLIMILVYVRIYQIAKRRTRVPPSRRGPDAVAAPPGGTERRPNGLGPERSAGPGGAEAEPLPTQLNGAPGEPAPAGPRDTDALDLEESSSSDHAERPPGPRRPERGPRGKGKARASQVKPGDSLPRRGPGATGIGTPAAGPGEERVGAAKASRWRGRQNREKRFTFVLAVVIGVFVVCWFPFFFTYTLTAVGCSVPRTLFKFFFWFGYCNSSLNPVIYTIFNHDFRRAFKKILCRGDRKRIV
# [3] = target: T4, Muscarinic acetylcholine receptor M2 (Homo sapiens, UniProt P08172); format: functional, cell-based
# T4 sequence (P08172 whole entry): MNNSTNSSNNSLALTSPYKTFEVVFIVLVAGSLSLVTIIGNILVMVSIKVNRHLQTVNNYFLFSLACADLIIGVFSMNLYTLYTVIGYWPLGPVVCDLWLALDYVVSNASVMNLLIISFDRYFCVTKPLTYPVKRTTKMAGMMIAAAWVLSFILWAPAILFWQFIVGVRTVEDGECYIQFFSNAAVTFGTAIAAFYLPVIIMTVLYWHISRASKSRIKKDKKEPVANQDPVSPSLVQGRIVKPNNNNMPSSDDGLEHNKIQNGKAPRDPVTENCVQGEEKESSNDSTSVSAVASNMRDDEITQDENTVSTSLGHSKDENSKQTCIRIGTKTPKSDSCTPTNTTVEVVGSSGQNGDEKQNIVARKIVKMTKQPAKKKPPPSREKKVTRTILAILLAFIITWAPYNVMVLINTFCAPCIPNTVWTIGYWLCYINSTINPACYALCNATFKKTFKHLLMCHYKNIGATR
# [4] = target: T4, Muscarinic acetylcholine receptor M2; format: functional, cell-based; remark: listed apart in the source
# D(1A) dopamine receptor = D(1A) dopamine receptor (Homo sapiens, UniProt P21728); format: functional, cell-based
# [5] = target: Gamma-aminobutyric acid receptor subunit alpha-1 (Rattus norvegicus, UniProt P62813); format: functional
# [6] = target: T5, 5-hydroxytryptamine receptor 2B (Homo sapiens, UniProt P41595); format: functional, cell-based
# [7] = target: T5, 5-hydroxytryptamine receptor 2B; format: functional, cell-based; remark: listed apart in the source
# [8] = target: cGMP-inhibited 3',5'-cyclic phosphodiesterase 3A (Homo sapiens, UniProt Q14432); format: functional
# D(3) dopamine receptor = D(3) dopamine receptor (Homo sapiens, UniProt P35462)
# [9] = target: T6, Alpha-1A adrenergic receptor (Homo sapiens, UniProt P35348); format: functional, cell-based
# T6 sequence (P35348 whole entry): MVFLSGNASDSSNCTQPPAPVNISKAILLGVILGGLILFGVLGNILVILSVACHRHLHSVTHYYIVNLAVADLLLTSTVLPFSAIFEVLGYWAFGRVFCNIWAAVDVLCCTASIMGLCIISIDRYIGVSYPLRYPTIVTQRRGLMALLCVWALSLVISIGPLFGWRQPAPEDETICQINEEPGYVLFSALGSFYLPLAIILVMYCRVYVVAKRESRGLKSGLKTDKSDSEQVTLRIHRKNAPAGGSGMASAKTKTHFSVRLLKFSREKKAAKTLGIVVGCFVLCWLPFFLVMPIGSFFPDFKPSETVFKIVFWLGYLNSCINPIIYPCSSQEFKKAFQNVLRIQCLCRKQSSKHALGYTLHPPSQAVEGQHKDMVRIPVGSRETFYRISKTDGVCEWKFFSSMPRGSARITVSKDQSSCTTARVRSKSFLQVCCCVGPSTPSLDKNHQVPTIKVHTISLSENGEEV
# Note: assay procedure not described here.
# Sequence of D(3) dopamine receptor (P35462 whole entry): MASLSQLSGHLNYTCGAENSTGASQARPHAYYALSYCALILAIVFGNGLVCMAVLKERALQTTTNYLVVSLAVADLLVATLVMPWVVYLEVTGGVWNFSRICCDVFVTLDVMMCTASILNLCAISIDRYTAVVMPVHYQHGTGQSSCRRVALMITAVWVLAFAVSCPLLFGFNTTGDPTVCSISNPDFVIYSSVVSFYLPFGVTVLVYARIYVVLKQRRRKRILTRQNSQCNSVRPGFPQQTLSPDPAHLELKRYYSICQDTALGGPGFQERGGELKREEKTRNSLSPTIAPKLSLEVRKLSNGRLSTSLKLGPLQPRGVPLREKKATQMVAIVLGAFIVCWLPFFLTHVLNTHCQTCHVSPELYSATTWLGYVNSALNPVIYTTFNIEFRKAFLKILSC
# Sequence of Adenosine receptor A2a (P29274 whole entry): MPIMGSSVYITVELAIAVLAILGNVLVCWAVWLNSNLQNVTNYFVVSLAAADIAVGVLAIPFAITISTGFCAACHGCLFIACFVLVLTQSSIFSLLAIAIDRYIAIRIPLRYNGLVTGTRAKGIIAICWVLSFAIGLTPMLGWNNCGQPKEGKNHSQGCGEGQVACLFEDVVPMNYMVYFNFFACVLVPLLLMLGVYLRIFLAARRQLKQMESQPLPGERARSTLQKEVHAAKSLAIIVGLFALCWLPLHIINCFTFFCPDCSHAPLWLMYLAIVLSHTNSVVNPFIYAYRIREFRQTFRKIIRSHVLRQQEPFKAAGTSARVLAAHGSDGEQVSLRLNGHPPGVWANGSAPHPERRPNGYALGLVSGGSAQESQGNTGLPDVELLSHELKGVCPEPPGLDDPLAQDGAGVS
# Sequence of Gamma-aminobutyric acid receptor subunit alpha-1 (P62813 whole entry): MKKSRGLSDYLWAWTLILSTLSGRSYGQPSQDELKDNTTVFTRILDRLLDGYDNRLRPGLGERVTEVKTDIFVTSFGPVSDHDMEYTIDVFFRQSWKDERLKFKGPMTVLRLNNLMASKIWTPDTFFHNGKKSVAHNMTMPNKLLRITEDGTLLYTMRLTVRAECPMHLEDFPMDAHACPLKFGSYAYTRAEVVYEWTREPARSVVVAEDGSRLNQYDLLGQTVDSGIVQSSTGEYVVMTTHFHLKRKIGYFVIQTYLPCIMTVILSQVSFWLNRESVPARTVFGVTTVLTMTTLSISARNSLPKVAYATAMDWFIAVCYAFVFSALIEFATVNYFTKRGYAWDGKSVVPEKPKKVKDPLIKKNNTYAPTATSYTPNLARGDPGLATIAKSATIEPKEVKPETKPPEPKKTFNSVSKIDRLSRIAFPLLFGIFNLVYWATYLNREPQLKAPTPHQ
# Sequence of D(1A) dopamine receptor (P21728 whole entry): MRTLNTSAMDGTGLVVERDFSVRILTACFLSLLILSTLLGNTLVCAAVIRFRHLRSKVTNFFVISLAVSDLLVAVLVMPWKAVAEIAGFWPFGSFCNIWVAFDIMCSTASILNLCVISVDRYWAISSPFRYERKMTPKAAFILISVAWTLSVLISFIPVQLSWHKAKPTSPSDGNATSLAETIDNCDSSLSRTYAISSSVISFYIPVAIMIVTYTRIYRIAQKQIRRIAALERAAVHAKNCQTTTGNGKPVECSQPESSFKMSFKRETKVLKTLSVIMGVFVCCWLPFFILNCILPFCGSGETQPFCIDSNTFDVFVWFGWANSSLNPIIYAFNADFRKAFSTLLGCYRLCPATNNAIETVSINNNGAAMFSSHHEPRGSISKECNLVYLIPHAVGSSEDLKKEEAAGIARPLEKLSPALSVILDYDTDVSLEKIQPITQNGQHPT
# Sequence of cGMP-inhibited 3',5'-cyclic phosphodiesterase 3A (Q14432 whole entry): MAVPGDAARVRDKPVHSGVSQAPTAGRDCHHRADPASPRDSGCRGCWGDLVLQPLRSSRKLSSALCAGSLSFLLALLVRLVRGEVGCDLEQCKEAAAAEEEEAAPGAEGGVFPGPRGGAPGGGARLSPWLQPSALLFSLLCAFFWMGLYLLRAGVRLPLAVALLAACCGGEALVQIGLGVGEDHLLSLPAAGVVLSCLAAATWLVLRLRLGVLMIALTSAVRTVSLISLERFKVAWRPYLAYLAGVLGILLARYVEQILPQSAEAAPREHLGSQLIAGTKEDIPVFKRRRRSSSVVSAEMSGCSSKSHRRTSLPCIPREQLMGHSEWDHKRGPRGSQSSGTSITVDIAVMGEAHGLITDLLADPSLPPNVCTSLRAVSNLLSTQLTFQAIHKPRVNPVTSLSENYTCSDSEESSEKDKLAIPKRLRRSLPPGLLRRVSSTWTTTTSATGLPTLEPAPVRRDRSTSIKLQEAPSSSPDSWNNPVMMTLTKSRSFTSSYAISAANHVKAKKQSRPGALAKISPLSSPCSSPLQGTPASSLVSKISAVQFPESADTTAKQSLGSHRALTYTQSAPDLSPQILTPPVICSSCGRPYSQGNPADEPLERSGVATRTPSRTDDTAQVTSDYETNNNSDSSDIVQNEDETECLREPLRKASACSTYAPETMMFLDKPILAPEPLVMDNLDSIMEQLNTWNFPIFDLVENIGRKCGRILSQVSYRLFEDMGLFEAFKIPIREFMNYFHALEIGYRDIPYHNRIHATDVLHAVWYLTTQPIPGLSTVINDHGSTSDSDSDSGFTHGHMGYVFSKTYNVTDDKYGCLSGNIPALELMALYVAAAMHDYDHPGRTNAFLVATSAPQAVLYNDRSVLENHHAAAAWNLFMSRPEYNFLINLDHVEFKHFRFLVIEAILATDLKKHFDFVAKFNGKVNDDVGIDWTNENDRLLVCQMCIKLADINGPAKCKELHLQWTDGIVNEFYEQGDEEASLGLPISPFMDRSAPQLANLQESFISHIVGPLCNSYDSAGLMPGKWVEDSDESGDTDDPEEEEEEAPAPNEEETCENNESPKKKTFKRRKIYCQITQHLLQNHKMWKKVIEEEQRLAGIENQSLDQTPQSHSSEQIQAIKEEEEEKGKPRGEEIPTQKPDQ
# T5 sequence (P41595 whole entry): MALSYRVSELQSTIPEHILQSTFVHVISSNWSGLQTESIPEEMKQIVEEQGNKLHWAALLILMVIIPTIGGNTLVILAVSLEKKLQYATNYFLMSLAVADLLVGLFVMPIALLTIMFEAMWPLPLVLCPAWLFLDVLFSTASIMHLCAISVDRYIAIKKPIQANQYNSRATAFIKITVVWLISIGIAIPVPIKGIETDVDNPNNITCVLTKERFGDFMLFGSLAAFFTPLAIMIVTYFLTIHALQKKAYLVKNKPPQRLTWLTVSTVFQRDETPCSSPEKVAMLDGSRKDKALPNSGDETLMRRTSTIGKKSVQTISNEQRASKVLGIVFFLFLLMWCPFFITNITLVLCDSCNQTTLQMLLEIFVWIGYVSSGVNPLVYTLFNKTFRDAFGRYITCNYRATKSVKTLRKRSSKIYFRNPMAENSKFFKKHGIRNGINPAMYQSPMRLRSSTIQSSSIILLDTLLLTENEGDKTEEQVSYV
Compound,AC50 [1],AC50 (Adenosine receptor A2a),AC50 (Adenosine receptor A3),AC50 [2],AC50 [3],AC50 [4],AC50 (D(1A) dopamine receptor),AC50 [5],AC50 [6],AC50 [7],AC50 [8],AC50 (D(3) dopamine receptor),AC50 [9]
Nc1ccc(C(=O)O)cc1 [AMINOBENZOIC ACID],> 30 µM,,,,,,,,,,,,
CCCC1C(=O)N2C(N(C)C)=Nc3ccc(C)cc3N2C1=O (stereo not given) [APAZONE],> 30 µM,,,,,,,,,,,,
CCS(=O)(=O)N1CC(CC#N)(n2cc(-c3ncnc4[nH]ccc34)cn2)C1 [BARICITINIB],> 30 µM,,,,,,,,,,,,
O=C1CN=C(c2ccccc2)c2c(sc3c2CCCC3)N1 [BENTAZEPAM],> 30 µM,,,,,,,,,,,,
O=C(Cn1ccnc1[N+](=O)[O-])NCc1ccccc1 [BENZNIDAZOLE],,> 30 µM,> 30 µM,> 30 µM,> 30 µM,> 30 µM,> 30 µM,> 30 µM,> 30 µM,> 30 µM,> 30 µM,> 30 µM,> 30 µM
O=C(O)CCCN1CCC(O[C@@H](c2ccc(Cl)cc2)c2ccccn2)CC1 [BEPOTASTINE],> 30 µM,,,,,,,,,,,,
C[N+](C)(C)CC(=O)O [BETAINE],,> 30 µM,> 30 µM,> 30 µM,> 30 µM,> 30 µM,> 30 µM,> 30 µM,> 30 µM,> 30 µM,> 30 µM,> 30 µM,> 30 µM
CCCCN(CCCC)CCCOC(=O)c1ccc(N)cc1 [BUTACAINE],> 30 µM,,,,,,,,,,,,
N[C@@H](CSCC(=O)O)C(=O)O [CARBOCYSTEINE],,> 30 µM,> 30 µM,> 30 µM,> 30 µM,> 30 µM,> 30 µM,> 30 µM,> 30 µM,> 30 µM,> 30 µM,> 30 µM,> 30 µM
NCc1ccccc1CC(=O)N[C@@H]1C(=O)N2C(C(=O)O)=C(CSc3nnnn3CC(=O)O)CS[C@H]12 [CEFORANIDE],> 30 µM,,,,,,,,,,,,
CC(C)(N)Cc1ccc(Cl)cc1 [CHLORPHENTERMINE],,> 30 µM,> 30 µM,> 10 µM,> 10 µM,> 10 µM,> 10 µM,> 10 µM,> 10 µM,25 µM,> 30 µM,> 30 µM,> 30 µM
NS(=O)(=O)c1cc(Cl)c(Cl)c(S(N)(=O)=O)c1 [DICHLORPHENAMIDE],,> 10 µM,> 10 µM,> 10 µM,> 10 µM,> 10 µM,> 10 µM,> 10 µM,> 10 µM,> 10 µM,> 30 µM,> 30 µM,> 30 µM
C=C1C[C@@H]2[C@H](CC[C@]3(C)C(=O)CC[C@@H]23)[C@@]2(C)C=CC(=O)C=C12 [EXEMESTANE],,> 30 µM,> 30 µM,> 10 µM,> 10 µM,> 10 µM,> 10 µM,> 10 µM,> 10 µM,36 µM,> 30 µM,> 30 µM,> 30 µM
CC(C(O)c1ccc(O)cc1)N1CCC(Cc2ccccc2)CC1 (stereo not given) [IFENPRODIL],,> 30 µM,> 30 µM,3.8 µM,> 30 µM,> 30 µM,> 30 µM,> 30 µM,> 30 µM,2.3 µM,> 30 µM,1.2 µM,0.45 µM
CC(=O)N(CC(O)CO)c1c(I)c(C(=O)NCC(O)CO)c(I)c(C(=O)NCC(O)CO)c1I (stereo not given) [IOHEXOL],,> 30 µM,> 30 µM,> 10 µM,> 10 µM,> 10 µM,> 10 µM,> 10 µM,> 10 µM,> 10 µM,> 30 µM,> 30 µM,> 30 µM
CN(CCCN1c2ccccc2CCc2ccccc21)CC(=O)c1ccc(Cl)cc1 [LOFEPRAMINE],,> 30 µM,18 µM,> 30 µM,> 30 µM,> 30 µM,> 30 µM,> 30 µM,> 30 µM,> 30 µM,> 30 µM,3 µM,4.4 µM
CN(C/C=C/c1ccccc1)Cc1cccc2ccccc12 [NAFTIFINE],,> 30 µM,> 30 µM,> 10 µM,> 10 µM,> 10 µM,> 10 µM,> 10 µM,> 10 µM,> 10 µM,> 30 µM,> 30 µM,> 30 µM
CC(C)NCC1CCc2cc(CO)c([N+](=O)[O-])cc2N1 (stereo not given) [OXAMNIQUINE],,> 10 µM,> 10 µM,> 10 µM,> 10 µM,> 10 µM,> 10 µM,> 10 µM,> 10 µM,26 µM,> 30 µM,7.4 µM,> 30 µM
CN(C)CCCN1c2ccccc2Sc2ccccc21 [PROMAZINE],,> 30 µM,> 30 µM,> 10 µM,> 10 µM,> 10 µM,> 10 µM,> 10 µM,> 10 µM,5.7 µM,15 µM,0.075 µM,0.141 µM
O=P(O)(O)C(O)(Cc1cccnc1)P(=O)(O)O [RISEDRONIC ACID],,> 30 µM,> 30 µM,> 30 µM,> 30 µM,> 30 µM,> 30 µM,> 30 µM,> 30 µM,> 30 µM,7.14 µM,> 30 µM,> 30 µM
O=C1CCC(N2C(=O)c3ccccc3C2=O)C(=O)N1 (stereo not given) [THALIDOMIDE],,> 30 µM,> 30 µM,> 10 µM,> 10 µM,> 10 µM,> 10 µM,> 10 µM,> 10 µM,> 10 µM,> 30 µM,> 10 µM,> 30 µM

# — ChEMBL document CHEMBL5291721, “A preclinical secondary pharmacology resource illuminates target-adverse drug reaction associations of marketed drugs” (Nat Commun, 2023)
